# Patent US9375434B2, “Antitumor effect potentiator composed of imidazooxazine compound” (Taiho Pharmaceutical Co., Ltd., priority 2012, dated 2016)
# What was measured:
# Assay type in all cases: in vivo, BALB/cA Jcl-nu/nu mice
# [1] = test system: Human ovarian cancer A2780 cell line; experiment: Potentiation of antitumor effect of paclitaxel, A2780 subcutaneous implant in nude mice (Test Example 1)
# Protocol: Human ovarian cancer A2780 cell line was subcutaneously implanted into the right flank of 7-week-old male BALB/cA Jcl-nu/nu mice. After the implant, the length (mm) and the width (mm) of the tumor were measured, and the tumor volume (TV) was calculated. Thereafter, the mice were divided into groups so that the average TV is equalized in each group. The day of grouping (n=5) is referred to as Day 0. […] Test liquids for the groups receiving only Compound-I were prepared by diluting Compound-I with 0.5% hydroxypropyl methylcellulose (HPMC) so as to enable administration at a Compound-I dose of 8 mg/kg/day, 16 mg/kg/day, and 24 mg/kg/day. […] In the groups receiving the two drugs, Compound-I was administered at doses of 8 mg/kg/day, 16 mg/kg/day, and 24 mg/kg/day, and paclitaxel was administered at a dose of 60 mg/kg/day. […] In the figure, the asterisk represents a result having a statistically significant difference compared with the single-drug administration group. FIG. 1 and Table 10 show the results.
# [2] = test system: Human stomach cancer cell line (NCI-N87); experiment: Potentiation of antitumor effect of lapatinib, NCI-N87 subcutaneous implant in nude mice (Test Example 4); conditions: compound-I 16 mg/kg/day p.o. day 1-14 (q.d.)
# Protocol: In the figure, the asterisk represents a result having a statistically significant difference compared with the single-drug administration group. FIG. 1 and Table 10 show the results. […] Lapatinib was prepared by adjusting its dose to 100 mg/kg/day. Further, the test liquid of Compound-I was prepared by adjusting its dose to 16 mg/kg/day. […] The effect of the combined administration was also statistically determined in the same manner as in Test Example 1. In the figure and the table, the asterisk represents a result having a statistically significant difference compared with the single-drug administration group. FIG. 7 and Table 13 show the results.
# [3] = test system: Human ovarian cancer cell line (A2780); experiment: Potentiation of antitumor effect of irinotecan, A2780 subcutaneous implant in nude mice (Test Example 5); conditions: compound-I 16 mg/kg/day p.o. day 1-14
# Protocol: (§1) As an index of antitumor effect, the TV at Day 15 was measured for each of the drug administration groups, and the relative tumor volume (RTV) relative to Day 1 and T/C (%) were calculated by the following formulas to evaluate the antitumor effect.
# (§2) TV (mm^3)=(length×width^2)/2 RTV=(TV at Day 15)/(TV at Day 1) T/C(%)=(average RTV value of the test liquid administration group)/(average RTV value of the control group)×100
# Human ovarian cancer cell line (A2780) was subcutaneously implanted into the right flank of 7-week-old male BALB/cA Jcl-nu/nu mice, and was used in the same manner as in Test Example 1. […] Further, the test liquid of Compound-I was prepared by adjusting its dose to 16 mg/kg/day.
# The effect of the combined administration was also statistically determined in the same manner as in Test Example 1. […] FIG. 9 and Table 14 show the results. Further, the change in the body weight over time was evaluated as an index of toxicity in the same manner as in Test Example 1.
# [4] = test system: Human ovarian cancer cell line (A2780); experiment: Potentiation of antitumor effect of doxorubicin, A2780 subcutaneous implant in nude mice (Test Example 6)
# Protocol: In the groups receiving only Compound-I, the test liquid was prepared by diluting Compound-I with 0.5% HPMC to enable administration at a Compound-I dose of 16 mg/kg/day. […] The effect of the combined administration was also statistically determined in the same manner as in Test Example 1.
# [5] = test system: Human stomach cancer cell line (4-1ST); experiment: Potentiation of effect of trastuzumab (Herceptin), 4-1ST subcutaneous implant in nude mice (Test Example 11); conditions: Day 1~14, p.o.
# Protocol: as §1, §2
# Human stomach cancer cell line (4-1ST) was subcutaneously implanted into the right flank of 6-week-old male BALB/cA Jcl-nu/nu mice, and was used in the same manner as in Test Example 1.
# According to the package insert, 7.2 mL of water for injection was added to a vial containing 150 mg of trastuzumab (Roche Pharma) using a sterilized injection syringe. The resulting 21 mg/mL solution was kept in a freezer. At the time of use, the frozen solution was diluted 10.5-fold with 4.75 mL of physiological saline at a trastuzumab concentration of 2.0 mg/mL, to yield a liquid for administration at a trastuzumab dose of 20 mg/kg/day. The test liquids of Compound-I were prepared to enable administration at doses of 16 and 24 mg/kg/day.
# Compound-I and trastuzumab were administered once a day from Day 1 to 14. In the combined administration groups, Compound-I was administrated at a dose of 16 and 24 mg/kg/day, trastuzumab was administrated at a dose of 20 mg/kg/day, and the evaluation was performed in the same manner as in Test Example 1. FIGS. 17A and 17B and Table 20 show the results. In the medium/Compound I administration group, the test liquid was orally administered once a day for consecutive days. In the trastuzumab administration group, the test liquid was intraperitoneally administered once a day for consecutive days.
# The effect of the combined administration was statistically determined in the same manner as in Test Example 7.
# [6] = compound-I 8 mg/kg/day p.o. day 1-14
# [7] = compound-I 16 mg/kg/day p.o. day 1-14
# [8] = compound-I 24 mg/kg/day p.o. day 1-14
smiles,measurement,setting,value
"CC1(O)CC(N)(c2ccc(-c3nc4n(c3-c3ccccc3)COc3ccncc3-4)cc2)C1 (stereo not drawn) [compound-I, trans-3-amino-1-methyl-3-(4-(3-phenyl-5H-imidazo[1,2-c]pyrido[3,4-e][1,3]oxazin-2-yl)phenyl)cyclobutanol]",RTV day 15 Mean ± SD,[1]; [6],23.66 ± 9.16
same,T/C (%),[1]; [6],92%
same,RTV day 15 Mean ± SD,[1]; [7],19.91 ± 1.41
same,T/C (%),[1]; [7],77%
same,RTV day 15 Mean ± SD,[1]; [8],18.94 ± 5.52
same,T/C (%),[1]; [8],74%
same,RTV day 15 Mean ± SD,[2],1.14 ± 0.11
same,T/C (%),[2],42%
same,RTV day 15 Mean ± SD,[3],19.16 ± 2.60
same,T/C (%),[3],63%
same,T/C (%),[4]; compound-I 16 mg/kg/day day 1-14,80%
same,RTV day 15 Mean ± SD,[4]; [7],22.17 ± 7.20
same,RTV^b) (mean ± SD),[5]; compound-I 16 mg/kg/day,3.01 ± 0.51
same,TGI^c) (%),[5]; compound-I 16 mg/kg/day,57.5%
same,RTV^b) (mean ± SD),[5]; compound-I 24 mg/kg/day,2.74 ± 0.29
same,TGI^c) (%),[5]; compound-I 24 mg/kg/day,61.4%
